Source: patent publication US20160024108A1, “USE OF DITHIINE-TETRACARBOXIMIDES FOR CONTROLLING BACTERIAL HARMFUL ORGANISMS IN USEFUL PLANTS” (BAYER CROPSCIENCE AKTIENGESELLSCHAFT, priority 2013, published 2016)

System: Pseudomonas syringae pv tomato
Assay: Field trial against bacterial speck on tomato (Spain, 2011), artificial inoculation
Format: in vivo
Details: formulation containing 400 g per liter at 500 g ai/ha; in comparison with untreated plots and copper oxychloride standard
Experimental: A standard experiment was conducted in Spain in 2011 to evaluate the performance of BCS-BB98685 against bacterial speck of tomato caused by the bacteria Pseudomonas syringae pv tomato. Tomato plants were grown under plastic tunnel. Plots were artificially inoculated with a suspension of bacteria and treated with different experimental chemical formulations using a conventional sprayer. Four chemical sprays were applied within 7 days intervals. One artificial inoculation was performed one day after the third application. Disease assessment was done on 3 tomato plants per plot, 11 days after the last application. Infected leaflets were sorted in 3 classes according to a severity scale (Class 1=1 spot/leaflet; Class 2=2-5 spots/leaflet; Class 3=>5 spots/leaflet). Then results were expressed as severity index and transformed in efficacy values using the Abbott formula.

With `Cn1c(=O)c2sc3c(=O)n(C)c(=O)c3sc2c1=O` [Compound I-1, 2,6-dimethyl-1H,5H-[1,4]dithiino[2,3-c:5,6-c′]dipyrrole-1,3,5,7(2H,6H)-tetrone] the “level of bacterial infection on tomatoes” value was “significantly reduce the level of bacterial infection on tomatoes”.
